Source: US10781203B2, “Nontoxic compounds for the treatment and prevention of herpesvirus infections” (The Penn State Research Foundation, priority 2016, dated 2020)

What was measured:
HCMV [1] = experiment: HCMV single-step growth curve / virus titer analysis (MOI=3); format: cell-based, Human cytomegalovirus (HCMV); conditions: for reduction in infectious virion production: MOI=3, titers at 96 hpi
Procedure: (§1) Infections were done at an MOI of 0.05 for multi-step growth curves and MOI 3 for single-step growth curves. Infections were done on NHDFs unless otherwise noted. Virus was incubated with cells for 2 hours before addition of fresh media. For growth curve analyses, virus was harvested at the indicated time-points for each experiment by scraping the cells into the medium, sonicating 10 times with 1 second pulses, vortexing for 15 seconds, and centrifuging at 13,000 rpm for 10 min. Supernatants were collected, aliquoted and flash-frozen in liquid nitrogen before storage at −80° C.
(§2) For MCMV growth curve analysis, samples were titrated on NIH 3T3 cells and titers were calculated using the 50% tissue culture infective dose method. Both HCMV virus stocks and samples for growth curves were titrated by serial dilutions on MRC5 cells and quantified by the immunological detection of immediate-early proteins as previously described (Britt W J. Human cytomegalovirus: propagation, quantification, and storage. Curr Protoc Microbiol. 2010; Chapter 14: Unit 14E.3). The numbers of stained nuclei were acquired on a Nikon Eclipse Ti Inverted microscope and fluorescent nuclei were quantified using the NIS Elements Software. Images of viral foci from infection of ARPE19 cells were also acquired on Eclipse Ti Inverted microscope. The number and size of foci were quantified using NIS Elements software.
^1H NMR spectra were recorded on a 500 MHz Bruker spectrometer (Billerica, Mass.) using tetramethylsilane (TMS) as the internal reference. The following abbreviations were used to designate chemical shift multiplicities: s=singlet, d=doublet, dd=double doublet, t=triplet, dt=doublet of triplet, m=multiplet. Mass Spec analysis was performed on 4000 Q trap hybrid triple quadrupole/linear ion trap instrument (Applied Biosystems/MDS Sciex) at the proteomic facility at Penn State Hershey Cancer Institute, Hershey, Pa. Thin-layer chromatography (TLC) was on aluminum-supported, precoated silica gel plates (EM Industries, Gibbstown, N.J.). 5-(2-methyl-3-thiazol-4-yl)-2-thiophencarboxaldehyde was purchased from MAYBRIDGE-Thermo Fisher (Cornwall, UK). All other starting materials were obtained from Aldrich Chemical Co. (Milwaukee, Wis.) and used without further purification. Retro94 was added to cells at 2 hpi at a concentration of 10 μM, unless otherwise indicated.

HCMV [2] = experiment: HCMV multi-step growth curve (MOI=0.05); format: cell-based, Human cytomegalovirus (HCMV); conditions: MOI 0.05 pfu/cell; 15 dpi; media exchanged and fresh drug added at 6 dpi
Procedure: as §1
as §2, with “software. […]” for “software.”

[3] = tested on: cytoplasmic viral assembly compartment (cVAC); experiment: Electron microscopy of HCMV-infected cells; format: cell-based, human; conditions: MOI=3; 96 hpi; treated at 2 hpi
Procedure: Cells were seeded on 60 mm Permanox tissue culture dishes (Nalge Nunc International). Infections were done at an MOI of 3 for 96 hours. Cells were first washed with PBS 3× followed by fixation for 1 hour at 4° C. in fixation buffer (0.5% [vol/vol] glutaraldehyde, 0.04% [wt/vol] paraformaldehyde, 0.1 M sodium cacodylate). Cells were then processed for EM by the Microscopy Imaging Facility (Pennsylvania State University College of Medicine). Briefly, the fixed samples were washed three times with 0.1 M sodium cacodylate, followed by postfixation in 1% osmium −1.5% potassium ferrocyanide overnight at 4° C. Samples were then washed 3 times in 0.1 M sodium cacodylate, dehydrated with ethanol, and embedded in Epon 812 for staining and sectioning. Images were acquired using a JEOL JEM-1400 Digital Capture transmission electron microscope.

[4] = tested on: Towne, TB40, Merlin and Toledo strains of HCMV; experiment: Viral titers of fibroblasts infected with various strains of HCMV; format: cell-based, Human cytomegalovirus (HCMV); conditions: all four strains; MOI=0.05; treated at 2 hpi; 15 dpi
Procedure: (§3) FIG. 7A is a graph showing viral titers at 15 dpi of fibroblasts infected with various strains of HCMV (MOI=0.05) and treated with DMSO or Retro94 at 2 hpi. Media was changed and fresh Retro94 was added at 6 dpi. Bright field images representing CPE of above infections shown at right. FIG. 7B show HCMV-infected ARPE-19 cells (TB40, MOI=3) at 21 dpi treated with DMSO or Retro94 ([…]). Infected cells detected by monitoring mCherry (red) expressed by TB40 virus. Scale bars: 1 mm. The table below images show number of foci detected, average area and standard error of the mean. P<0.00001. […]
as §2, with “Images of viral foci from infection of ARPE19 cells were also acquired on Eclipse Ti Inverted microscope.” left out

MCMV = experiment: Viral titers of MCMV-infected fibroblasts; format: cell-based, mouse; conditions: treated at 2 hpi; 6 dpi (FIG. 7C)
Procedure: as §3
as §2, with “Images of viral foci from infection of ARPE19 cells were also acquired on Eclipse Ti Inverted microscope.” left out

HSV-1 = experiment: Virus titer analysis of HSV; format: cell-based; conditions: MOI=3; harvested at 24 hpi
Text: FIGS. 10A-10B show data to provide support for Retro94 and derivatives being effective against other herpesviruses. […] Samples were harvested at 24 hpi. Representative data shown are from independent replicates. FIG. 10B provides a table showing low nanomolar EC50 values of Retro94F against other herpesviruses.

Cc1nc(-c2ccc(C3N(C)c4ccccc4C(=O)N3c3ccccc3)s2)cs1 (stereo not drawn) [Retro94, 1-Methyl-2-(5-(2-methylthiazol-4-yl)thiophen-2-yl)-3phenyl-2,3-dihydroquinazolin-4(1H)-one]
IC50 (HCMV [1]; Human betaherpesvirus 5, added at 2 hpi, MOI 3, 96 hpi, read-out: IC50 (HCMV titers)): ~130 nM
reduction of production of infectious virions (HCMV [1]; MOI 3 pfu/cell, added two hours after infection, 10 μM): greater than two
reduction in infectious virion production (HCMV [1]; added at 2 hpi): two
reduction in infectious virion production (HCMV [1]; added at 24 hpi): 20 fold
reduction in infectious virion production (HCMV [1]; added at 48 hpi): 5 fold
reduction in infectious virion production (HCMV [1]; added at 72 hpi): two
dilution at which a significant inhibition in viral titers was first present (HCMV [1]; ten-fold dilutions added at 2 hpi, MOI 3, 96 hpi): 1 µM
reduction in the amount of infectious virus produced (HCMV [2]): five
capsids in perinuclear region (EM) [3]: largely devoid of capsids at all stages of maturation
viral titers lower in the presence of compound [4]: two to three
decrease of MCMV titer (MCMV): ~3 logs
decrease of levels of HSV-1 (HSV-1): ~90%
